“And” between values parts separate entries of the source, which are not always exact repeats. Equal entries are not always repeated. Inconclusive results and toxic doses are left out. No stated cut-off is given here; in the data, active means T/C of 150% or more; inactive means T/C below 125%.
Test system: L1210 leukemia ip in BDF1 mice, survival T/C
Experiment: NCI In Vivo Anticancer Drug Screen. Data for tumor model L1210 Leukemia (intraperitoneal) in B6D2F1 (BDF1) mice
Conditions: endpoint: mean survival time, higher = longer survival
Outline: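 Tumor cells were implanted, animals were treated, and survival was followed. The result divides the treated measurement by the vehicle-control measurement.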

[1] = dose: 100.0 mg/kg/injection, schedule: Q01DX001 (ip), vehicle: saline
[2] = dose: 200.0 mg/kg/injection, schedule: Q01DX001 (ip), vehicle: saline
[3] = dose: 400.0 mg/kg/injection, schedule: Q01DX001 (ip), vehicle: saline
[4] = dose: 100.0 mg/kg/injection, schedule: Q01DX009 (ip), vehicle: Klucel (hydroxypropylcellulose) (HPC)
[5] = dose: 200.0 mg/kg/injection, schedule: Q01DX009 (ip), vehicle: Klucel (hydroxypropylcellulose) (HPC)
[6] = dose: 50.0 mg/kg/injection, schedule: Q01DX009 (ip), vehicle: saline with Tween-80
[7] = dose: 100.0 mg/kg/injection, schedule: Q01DX009 (ip), vehicle: saline with Tween-80
[8] = dose: 200.0 mg/kg/injection, schedule: Q01DX009 (ip), vehicle: saline with Tween-80
[9] = dose: 75.0 mg/kg/injection, schedule: Q01DX009 (ip), vehicle: saline
[10] = dose: 100.0 mg/kg/injection, schedule: Q04DX003 (ip), vehicle: Klucel (hydroxypropylcellulose) (HPC)
[11] = dose: 200.0 mg/kg/injection, schedule: Q04DX003 (ip), vehicle: Klucel (hydroxypropylcellulose) (HPC)
[12] = dose: 400.0 mg/kg/injection, schedule: Q04DX003 (ip), vehicle: Klucel (hydroxypropylcellulose) (HPC)
[13] = dose: 50.0 mg/kg/injection, schedule: Q01DX009 (ip), vehicle: saline

Measured: T/C

CC(=O)OCC(=O)[C@@]1(O)CC[C@H]2[C@@H]3CCC4=CC(=O)CC[C@]4(C)[C@H]3C(=O)C[C@@]21C
inactive: dose: 12.5 mg/kg/injection, schedule: Q01DX015 (sc), vehicle: steriod suspending solution 102 % of control | dose: 25.0 mg/kg/injection, schedule: Q01DX015 (sc), vehicle: steriod suspending solution 100 % of control | dose: 50.0 mg/kg/injection, schedule: Q01DX015 (sc), vehicle: steriod suspending solution 100 % of control | dose: 100.0 mg/kg/injection, schedule: Q01DX001 (sc), vehicle: steriod suspending solution 101 % of control | dose: 100.0 mg/kg/injection, schedule: Q01DX015 (sc), vehicle: steriod suspending solution 107 % of control | dose: 100.0 mg/kg/injection, schedule: Q04DX003 (sc), vehicle: steriod suspending solution 108 % of control | dose: 200.0 mg/kg/injection, schedule: Q01DX001 (sc), vehicle: steriod suspending solution 92 % of control | dose: 200.0 mg/kg/injection, schedule: Q01DX015 (sc), vehicle: steriod suspending solution 110 % of control | dose: 200.0 mg/kg/injection, schedule: Q04DX003 (sc), vehicle: steriod suspending solution 102 % of control | dose: 400.0 mg/kg/injection, schedule: Q01DX001 (sc), vehicle: steriod suspending solution 111 % of control | dose: 400.0 mg/kg/injection, schedule: Q01DX015 (sc), vehicle: steriod suspending solution 104 % of control | dose: 400.0 mg/kg/injection, schedule: Q04DX003 (sc), vehicle: steriod suspending solution 98 % of control

O=C(/C=C/C(=O)c1ccc(Cl)cc1)c1ccc(Cl)cc1
inactive: dose: 100.0 mg/kg/injection, schedule: Q01DX009 (ip), vehicle: gum acacia 95 % of control | dose: 100.0 mg/kg/injection, schedule: Q04DX003 (ip), vehicle: gum acacia 97 % of control | dose: 200.0 mg/kg/injection, schedule: Q01DX009 (ip), vehicle: gum acacia 95 % of control | dose: 200.0 mg/kg/injection, schedule: Q04DX003 (ip), vehicle: gum acacia 95 % of control | dose: 400.0 mg/kg/injection, schedule: Q01DX009 (ip), vehicle: gum acacia 101 % of control | dose: 400.0 mg/kg/injection, schedule: Q04DX003 (ip), vehicle: gum acacia 95 % of control

CCOC(=O)N1N=C([P+](c2ccccc2)(c2ccccc2)c2ccccc2)CC1(c1ccccc1)c1ccccc1
inactive: dose: 25.0 mg/kg/injection, schedule: Q01DX001 (ip), vehicle: saline 98 % of control | dose: 50.0 mg/kg/injection, schedule: Q01DX001 (ip), vehicle: saline 104 % of control | [1] 104 % of control

CCCCCCCCCCCC(=O)N(C)CC(=O)O
inactive: [1] 96 % of control

NC(=O)c1ccc[n+](CCF)c1
inactive: [1] 98 % of control | [2] 98 % of control | [3] 104 % of control

[O-][n+]1ccccc1-c1ccccc1
inactive: dose: 50.0 mg/kg/injection, schedule: Q01DX009 (ip), vehicle: Klucel (hydroxypropylcellulose) (HPC) 104 % of control | [4] 101 % of control | dose: 100.0 mg/kg/injection, schedule: Q04DX002 (ip), vehicle: Klucel (hydroxypropylcellulose) (HPC) 104 % of control | [5] 118 % of control | dose: 200.0 mg/kg/injection, schedule: Q04DX002 (ip), vehicle: Klucel (hydroxypropylcellulose) (HPC) 107 % of control

Cc1cc(C)c2nc(Cl)cc(C)c2c1
inactive: [1] 91 % of control | [2] 91 % of control | [3] 104 % of control

CN(C)C(=S)NN
inactive: dose: 1.56 mg/kg/injection, schedule: Q01DX009 (ip), vehicle: saline with Tween-80 111 % of control | dose: 3.12 mg/kg/injection, schedule: Q01DX009 (ip), vehicle: saline with Tween-80 117 % of control

COc1ccc(C)cc1NC(=O)NC(C)=O
inactive: [6] 92 % of control | [7] 88 % of control | [8] 95 % of control

[N-]=C=C(C(=O)c1ccccc1)[n+]1cc(Br)cc2ccccc21
inactive: dose: 100.0 mg/kg/injection, schedule: Q04DX002 (ip), vehicle: saline with Tween-80 94 % of control | dose: 200.0 mg/kg/injection, schedule: Q04DX002 (ip), vehicle: saline with Tween-80 94 % of control | dose: 400.0 mg/kg/injection, schedule: Q04DX002 (ip), vehicle: saline with Tween-80 94 % of control

COC(=O)c1ccccc1NC(=S)NC(=O)c1ccccc1F
inactive: dose: 25.0 mg/kg/injection, schedule: Q01DX009 (ip), vehicle: saline with Tween-80 93 % of control | [6] 92 % of control | [8] 91 % of control

NNC(=O)CCC(N)C(=O)O (stereo not given)
inactive: dose: 10.77 mg/kg/injection, schedule: Q01DX Z (ip), vehicle: carboxymethylcellulose (CMC) 94 % of control | dose: 21.53 mg/kg/injection, schedule: Q01DX Z (ip), vehicle: carboxymethylcellulose (CMC) 95 % of control | dose: 43.05 mg/kg/injection, schedule: Q01DX Z (ip), vehicle: carboxymethylcellulose (CMC) 104 % of control | dose: 86.1 mg/kg/injection, schedule: Q01DX Z (ip), vehicle: carboxymethylcellulose (CMC) 111 % of control and 124 % of control

CC(=O)NCc1ccc(N2C(N)=NC(N)=NC2(C)C)cc1
inactive: [9] 92 % of control | dose: 150.0 mg/kg/injection, schedule: Q01DX009 (ip), vehicle: saline 87 % of control | dose: 300.0 mg/kg/injection, schedule: Q01DX009 (ip), vehicle: saline 90 % of control

Cc1cc(N(C)C)ccc1C=O
inactive: [4] 94 % of control | [10] 97 % of control | [5] 105 % of control | [11] 105 % of control | dose: 400.0 mg/kg/injection, schedule: Q01DX009 (ip), vehicle: Klucel (hydroxypropylcellulose) (HPC) 103 % of control | [12] 98 % of control

O=S(=O)(Cl)CCCBr
inactive: dose: 100.0 mg/kg/injection, schedule: Q01DX009 (ip), vehicle: saline sonified 93 % of control | dose: 200.0 mg/kg/injection, schedule: Q01DX009 (ip), vehicle: saline sonified 86 % of control

Cc1ccccc1C(c1ccccc1)C(CC(=O)O)CC(=O)O (stereo not given)
inactive: [7] 96 % of control | dose: 100.0 mg/kg/injection, schedule: Q04DX003 (ip), vehicle: other 100 % of control | [8] 95 % of control | dose: 200.0 mg/kg/injection, schedule: Q04DX003 (ip), vehicle: other 103 % of control | dose: 400.0 mg/kg/injection, schedule: Q01DX009 (ip), vehicle: saline with Tween-80 93 % of control | dose: 400.0 mg/kg/injection, schedule: Q04DX003 (ip), vehicle: other 106 % of control

S=c1nc[nH]c2cc[nH]c12
inactive: dose: 100.0 mg/kg/injection, schedule: Q01DX001 (ip), vehicle: other 95 % of control | dose: 200.0 mg/kg/injection, schedule: Q01DX001 (ip), vehicle: other 98 % of control | dose: 400.0 mg/kg/injection, schedule: Q01DX001 (ip), vehicle: other 101 % of control

CCCCCCCN(CCCCCCC)CC(O)c1cc2ccccc2c2cnccc12 (stereo not given)
inactive: dose: 100.0 mg/kg/injection, schedule: Q01DX009 (ip), vehicle: other 98 % of control | [10] 91 % of control | dose: 200.0 mg/kg/injection, schedule: Q01DX009 (ip), vehicle: other 97 % of control | [11] 98 % of control | [12] 93 % of control

COc1cc2cc[n+]3c(C)c4cc5c(cc4cc3c2cc1OC)OCO5 (tested in a mixture with another compound)
inactive: dose: 2.5 mg/kg/injection, schedule: Q01DX009 (ip), vehicle: saline 109 % of control | dose: 5.0 mg/kg/injection, schedule: Q01DX009 (ip), vehicle: saline 103 % of control | [13] 97 % of control

O=[N+]([O-])c1ccc(Cl)c2ccncc12
inactive: [6] 102 % of control | [7] 105 % of control | [8] 105 % of control

O=[N+]([O-])c1ccc(C2OC(c3ccncc3)=NC2CO)cc1 (stereo not given)
inactive: dose: 12.5 mg/kg/injection, schedule: Q04DX002 (ip), vehicle: saline 90 % of control | dose: 25.0 mg/kg/injection, schedule: Q04DX002 (ip), vehicle: saline 97 % of control | [13] 96 % of control | dose: 50.0 mg/kg/injection, schedule: Q04DX002 (ip), vehicle: saline 90 % of control | [9] 102 % of control | dose: 115.0 mg/kg/injection, schedule: Q01DX009 (ip), vehicle: saline 101 % of control

— PubChem BioAssay AID248 (DTP/NCI, 2004)
